Measured values published in patent US20220380331A1, “TREATMENT OF CONDITIONS OF THE NERVOUS SYSTEM” (priority 2019, published 2022).
“Also recorded” adds a separate entry of the source.

Assays:
[1] = system: locomotor function of intact rats; conditions: female, Lister Hooded, rat, in vivo, 10 days
Description: Firstly, the inventors questioned whether PNN removal throughout the CNS would affect normal sensation and motor functions. To investigate this, adult female Lister Hooded rats (n=11) were given ten days of oral PNNi treatment and subjected to routine behavioural testing.

[2] = system: locomotor function of intact rats; assay: BBB open field locomotor testing in intact rats after ten days of oral PNNi; assay type: in vivo, rat; conditions: short-term treatment
Protocol: HL locomotor ability was assessed at various time points throughout the acute SCI paradigm using the BBB HL locomotor scale. BBB testing was carried out using an open locomotor field (custom-built Perspex O-ring: diameter 80 cm, height 30 cm) where animals were placed for a duration of 4 minutes (FIG. 2). Each BBB test was simultaneously assessed by two individuals. The resulting scores were pooled and averaged for objectivity. BBB testing assesses HL motor function using a ranking scale from 0-21. Animals are ranked into three broad categories based on their BBB score: early phase (score of 0-7) presenting little to no limb movement; intermediate stage (score of 8-13) with bouts of uncoordinated stepping; and the late stage (score of 14-21) presenting with FL and HL coordination and stability (Basso et al., 1995). Following injury, BBBs were then carried out at 1 DPI to confirm injury and then weekly from 7 DPI. If animals also received rehabilitative training, BBBs were carried out beforehand.

[3] = system: sensorimotor cortical slices; assay: Field potentials and paired-pulse protocols in in vitro sensorimotor cortical slices; parameters: species or system rat
Protocol: FIG. […]): Forelimb (FL) shifts into hindlimb (HL) area of sensorimotor cortex (M1) after perineuronal net inhibitor (PNNi) and spinal cord injury (SCI) combination. PNNi and/or injury independently enhances cortical plasticity in spinal cord injured rats. Intracortical microstimulation (ICMS) was performed at stereotaxic coordinates within a right hemisphere craniotomy 5 mm rostral/caudal to bregma (B) (A) 11 weeks post-injury. Representative heat maps per group illustrate the percentage of animals for each stereotaxic coordinate where HL (B-C) or FL (D-E) movements were able to be elicited. The Lister Hooded rat baseline HL and FL cortical maps (dotted outlines in B-E) were compared to groups with mid-thoracic SCI (B, D) and/or long-term PNNi administration (C, E) to assess structural plasticity. HL movements were unable to be elicited after SCI (B-C). Measurements for FL analysis (K-N) are illustrated in J). After PNNi and/or SCI, FL movements were elicited in areas that previously elicited HL movements (see right of white dotted outline D-E). […] G: Plot of the average field potential amplitudes vs. stimulus intensity per group. Synaptic responses were elicited in cortical layers II/III by electrical stimuli via bipolar electrodes placed in cortical layers V/VI. Recordings were performed on cortical slice at the following coordinates: ML: 2-3 mm and AP 1.40-1.8 mm caudal to bregma. […]

[4] = system: HL sensory function after spinal cord injury; assay: Von Frey assay (50% withdrawal threshold) in spinal cord injured rats; assay type: in vivo, rat
Protocol: Changes to HL sensory function was assessed using von Frey methodologies to look for hyperalgesia and neuropathic pain. Four animals at a time were acclimatised to Perspex cages with a wire mesh bottom (FIG. 3) for approximately fifteen to twenty minutes before the test began and until general movement and grooming activities stopped. Von Frey filaments (Touch Test™ Sensory Evaluator Kit of 20; #39337500; Leica Biosystems, Milton Keynes, England FIG. 3C) were depressed through the mesh-bottomed cage against the more sensitive plantar arch of the HL footpads where withdrawal of the limb was counted as a positive result. Flinching was also seen as a positive response whereas walking was an ambiguous response requiring retesting after an appropriate delay. The left hindpaw and right hindpaw of all animals were performed in series to provide a sufficient interval between stimuli.

[5] = system: mouse; conditions: in vivo, po; cited from earlier work

Q: What does the source list for Cc1cc(=O)oc2cc(O)ccc12 [PNNi, 4-methylumbelliferone]?
A: FL correct steps [1]: 94.4±0.56%; FL missed steps [1]: 1.13±0.24%; FL slipped steps [1]: 4.35±0.54%; HL correct stepping on the horizontal ladder [1]: approximately 92.7±0.82%; HL misses on the horizontal ladder [1]: 1.92±0.41%; HL slips on the horizontal ladder [1]: 5.43±0.70%; BBB hindlimb scale score [2]: 21; intracortical synaptic transmission ([3]; combination of SCI and PNNi treatment): increased intracortical synaptic transmission; also recorded: elevated synaptic transmission; paired-pulse inhibition (PPR) ([3]; sham animals, short and long interstimulus intervals): not altered; L-R average 50% withdrawal threshold, plantar hindpaws ([4]; 8 week PNNi with or without training, 9 and 12 WPI): did not show hyperalgesia; tactile sensitivity using von Frey hair test ([4]; treatment groups after T9 contusion injury, n=11): did not show any difference; lethal dose [5]: 7500 mg/kg
